Common to all, as to assay type: tissue-based
What all share (details): Cavia porcellus, target entry is the homologue from another species

Experiment [1] concerns the target T1, 5-hydroxytryptamine receptor 1A (Homo sapiens) (UniProt P08908).
T1 sequence (whole entry): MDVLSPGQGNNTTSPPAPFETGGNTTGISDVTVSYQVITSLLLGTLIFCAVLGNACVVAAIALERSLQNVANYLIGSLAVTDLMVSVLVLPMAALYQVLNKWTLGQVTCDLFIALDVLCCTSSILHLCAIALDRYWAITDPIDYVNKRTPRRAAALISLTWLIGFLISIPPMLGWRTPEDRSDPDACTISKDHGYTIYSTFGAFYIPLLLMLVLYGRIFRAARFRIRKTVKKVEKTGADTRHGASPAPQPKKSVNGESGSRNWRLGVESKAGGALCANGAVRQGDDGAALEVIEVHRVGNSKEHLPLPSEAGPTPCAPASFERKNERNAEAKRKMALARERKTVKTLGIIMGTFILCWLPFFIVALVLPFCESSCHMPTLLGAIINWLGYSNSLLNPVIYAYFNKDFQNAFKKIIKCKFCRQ
Nature of the experiment: Ability to antagonize Acetylcholine induced contractile responses in Guinea pig ileum for 5-HT1A receptor. Inactive at dose level of 1.0 uM.

The target in experiment [2] is T1, 5-hydroxytryptamine receptor 1A (Homo sapiens). Nature of the experiment: Ability to antagonize electrical induced contractile responses in Guinea pig ileum for 5-HT1A receptor. Inactive at dose level of 1.0 uM.
The target is the same in experiment [3]. Briefly: Ability to antagonize Acetylcholine induced contractile responses in Guinea pig ileum for 5-HT1A receptor.
For experiment [4] the target is unchanged. Nature of the experiment: Ability to antagonize electrical induced contractile responses in Guinea pig ileum for 5-HT1A receptor.
Experiment [5] has the same target. Nature of the experiment: Ability to antagonize electrical induced contractile responses in Guinea pig ileum for 5-HT1A receptor; Inactive at dose level of 1.0 uM.

Activity calls are given as the source filed them. The calls are words filed in the database; no cut-off is given here.

Regarding `Cc1cc2c(cc1O)CC1c3c(cccc3-2)CCN1C` (single isomer, unassigned; (-)), the ED50 entry in experiment [1] and in experiment [2] was “inactive” each time.
For the compound `COc1cc2c(cc1C)-c1cccc3c1C(C2)N(C)CC3` (single isomer, unassigned; (+)), the ED50 in experiment [3] is 24.9 µM; in experiment [4] it was 5.4 µM.
In the case of `Cc1cc2c(cc1O)CC1c3c(cccc3-2)CCN1C` (single isomer, unassigned; (+)), the ED50 result in experiment [1] and in experiment [2] was “inactive” each time.
`COc1cc2c(cc1C)CC1c3c(cccc3-2)CCN1C` (stereo in doubt; (-)-9): the figures for the ED50 in experiment [3] and in experiment [4] were 11.4 µM and 2.6 µM, respectively.
Take `COc1cc2c(cc1C)-c1cccc3c1C(C2)N(C)CC3` (single isomer, unassigned; (-)): the results for the ED50 in experiment [3] and in experiment [4] were 2.7 µM and 5 µM, respectively.
With `Cc1cc2c(cc1O)-c1cccc3c1C(C2)N(C)CC3` (single isomer, unassigned; (+)), the ED50 entry in experiment [5] and in experiment [1] was “inactive” each time.
Consider `COc1cc2c(cc1C)CC1c3c(cccc3-2)CCN1C` (stereo in doubt; (+)-9), for which the ED50 amounted to 36.6 µM in experiment [3] and 5.9 µM in experiment [4].
As to `Cc1ccc2c(c1O)-c1cccc3c1[C@@H](C2)N(C)CC3`, the ED50 in experiment [4] is 0.05 µM.
`Cc1cc2c(cc1O)-c1cccc3c1C(C2)N(C)CC3` (single isomer, unassigned; (-)): the ED50 entry in experiment [1] and in experiment [2] was “inactive” in each case.

For the origin of these results see ChEMBL document CHEMBL1128373, “A-ring ortho-disubstituted aporphine derivatives as potential agonists or antagonists at serotonergic 5-HT1A receptors” (J Med Chem, 1995).
